Each structure is given as a SMILES string. pIC50, pKi: −log10 of the molar value.

For assay [1], the target named is T1, Androgen receptor (Homo sapiens, UniProt P10275).
T1 sequence (P10275 whole entry): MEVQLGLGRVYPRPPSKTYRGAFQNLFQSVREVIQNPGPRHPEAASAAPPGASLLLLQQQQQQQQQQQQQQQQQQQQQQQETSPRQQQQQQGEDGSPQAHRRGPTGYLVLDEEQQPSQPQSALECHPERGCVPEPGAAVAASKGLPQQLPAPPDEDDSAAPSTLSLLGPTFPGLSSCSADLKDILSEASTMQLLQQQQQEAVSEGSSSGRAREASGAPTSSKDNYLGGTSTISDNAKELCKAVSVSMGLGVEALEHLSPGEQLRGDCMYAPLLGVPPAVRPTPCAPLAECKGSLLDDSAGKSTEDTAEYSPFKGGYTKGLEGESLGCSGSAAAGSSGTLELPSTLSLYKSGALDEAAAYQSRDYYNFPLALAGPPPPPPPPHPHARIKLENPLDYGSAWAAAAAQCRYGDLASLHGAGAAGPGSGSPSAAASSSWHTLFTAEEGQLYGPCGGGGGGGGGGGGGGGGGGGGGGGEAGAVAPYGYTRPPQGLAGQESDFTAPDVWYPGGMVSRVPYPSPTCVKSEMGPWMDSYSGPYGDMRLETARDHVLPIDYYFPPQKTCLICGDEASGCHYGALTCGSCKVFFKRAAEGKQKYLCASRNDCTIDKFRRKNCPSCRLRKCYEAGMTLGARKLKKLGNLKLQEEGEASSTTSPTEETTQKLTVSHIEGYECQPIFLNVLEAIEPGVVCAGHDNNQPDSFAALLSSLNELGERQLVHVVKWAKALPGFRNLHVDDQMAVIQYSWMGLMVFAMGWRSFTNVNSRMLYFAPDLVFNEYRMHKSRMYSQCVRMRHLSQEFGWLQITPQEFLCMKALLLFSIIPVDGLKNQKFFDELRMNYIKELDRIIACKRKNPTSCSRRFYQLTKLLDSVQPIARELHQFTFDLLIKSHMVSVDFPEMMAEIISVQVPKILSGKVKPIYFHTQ
The experiment in a line: Antagonist activity against human Androgen receptor. It is filed as functional.

Assay [2] addresses T2, Androgen receptor (Homo sapiens) (UniProt P10275).
T2 sequence (whole entry): T1 sequence (P10275 whole entry)
The assay is described as follows: Antagonist efficacy at human androgen (hAR) receptor; not active. It counts as functional.

The target in assay [3] is T3, Progesterone receptor (Homo sapiens, UniProt P06401).
T3 sequence (P06401 whole entry): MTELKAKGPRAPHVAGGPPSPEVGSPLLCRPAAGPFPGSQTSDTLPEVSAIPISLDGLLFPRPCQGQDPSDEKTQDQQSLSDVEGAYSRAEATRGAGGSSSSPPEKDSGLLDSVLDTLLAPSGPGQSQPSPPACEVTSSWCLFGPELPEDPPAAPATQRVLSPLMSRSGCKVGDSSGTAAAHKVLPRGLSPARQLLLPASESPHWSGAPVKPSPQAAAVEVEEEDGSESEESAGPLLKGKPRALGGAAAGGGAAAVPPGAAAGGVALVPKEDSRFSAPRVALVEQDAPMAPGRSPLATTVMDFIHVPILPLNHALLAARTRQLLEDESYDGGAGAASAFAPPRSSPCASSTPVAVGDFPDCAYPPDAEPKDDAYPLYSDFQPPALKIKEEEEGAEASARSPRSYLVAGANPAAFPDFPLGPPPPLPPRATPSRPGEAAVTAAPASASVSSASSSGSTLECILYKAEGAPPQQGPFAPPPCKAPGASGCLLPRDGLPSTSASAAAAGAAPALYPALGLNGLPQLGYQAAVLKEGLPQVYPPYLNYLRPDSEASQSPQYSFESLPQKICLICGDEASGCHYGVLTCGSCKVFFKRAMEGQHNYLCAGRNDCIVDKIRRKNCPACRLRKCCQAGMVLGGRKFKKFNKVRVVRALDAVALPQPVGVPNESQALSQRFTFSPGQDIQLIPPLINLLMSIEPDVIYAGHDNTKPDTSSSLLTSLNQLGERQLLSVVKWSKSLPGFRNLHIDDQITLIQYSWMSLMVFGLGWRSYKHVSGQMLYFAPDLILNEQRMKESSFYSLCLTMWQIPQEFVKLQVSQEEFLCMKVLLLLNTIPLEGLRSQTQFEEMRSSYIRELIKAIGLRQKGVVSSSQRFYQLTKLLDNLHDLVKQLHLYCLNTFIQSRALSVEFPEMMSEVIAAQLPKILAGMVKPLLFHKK
The assay is described as follows: Binding affinity for human progesterone receptor; […].

For assay [4], the target named is T4, Glucocorticoid receptor (Homo sapiens) (UniProt P04150).
T4 sequence (whole entry): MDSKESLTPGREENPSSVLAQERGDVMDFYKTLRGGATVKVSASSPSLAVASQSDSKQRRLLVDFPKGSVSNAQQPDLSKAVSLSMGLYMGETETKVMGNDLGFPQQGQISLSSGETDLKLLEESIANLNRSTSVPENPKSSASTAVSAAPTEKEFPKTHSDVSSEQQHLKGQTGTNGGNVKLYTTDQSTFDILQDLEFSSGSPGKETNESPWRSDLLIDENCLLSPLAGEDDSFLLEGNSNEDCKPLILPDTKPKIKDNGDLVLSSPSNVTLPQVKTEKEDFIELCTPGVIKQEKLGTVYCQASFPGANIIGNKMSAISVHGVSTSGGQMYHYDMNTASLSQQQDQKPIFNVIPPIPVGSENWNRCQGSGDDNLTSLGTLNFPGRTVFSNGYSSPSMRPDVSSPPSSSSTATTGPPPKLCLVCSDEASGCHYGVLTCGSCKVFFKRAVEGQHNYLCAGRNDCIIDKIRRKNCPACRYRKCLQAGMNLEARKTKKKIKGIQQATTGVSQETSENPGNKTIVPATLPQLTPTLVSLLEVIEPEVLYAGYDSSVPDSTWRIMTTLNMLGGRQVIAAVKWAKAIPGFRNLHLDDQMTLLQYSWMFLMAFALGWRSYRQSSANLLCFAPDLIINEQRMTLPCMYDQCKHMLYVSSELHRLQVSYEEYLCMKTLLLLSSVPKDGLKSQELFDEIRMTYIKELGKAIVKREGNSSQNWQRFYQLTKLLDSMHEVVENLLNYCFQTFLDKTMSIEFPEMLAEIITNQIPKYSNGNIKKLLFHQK
The assay is described as follows: Antagonist efficacy at glucocorticoid (hGR) receptor. It counts as functional.

The pIC50 is −log10 of the IC50, conventionally taken in molar units. High values mean a small IC50, low ones a large IC50. As for `CC/C(C)=C1\Oc2ccc(F)cc2-c2ccc3c(c21)C(C)=CC(C)(C)N3`, the pIC50 in assay [1] is 6.60.

By pKi is commonly meant −log10 of the Ki, conventionally taken in molar units. A low value points to a large Ki. `CC(C)=C/C=C1\Oc2ccc(F)cc2-c2ccc3c(c21)C(C)=CC(C)(C)N3`: in assay [2], the Efficacy is less than 20%. In assay [3], this molecule had a pKi of 8.60.

In assay [4], `CC(=O)C[C@]1(C(C)=O)CC[C@H]2C3C[C@H](C)C4=CC(=O)CC[C@]4(C)[C@H]3CC[C@@]21C` (some centres undefined) returned an Efficacy of 157%.

Source of the values: ChEMBL document CHEMBL1136068 (Bioorg Med Chem Lett, 2003).
